Data as given in BindingDB's records for doi:10.1111/cbdd.12732 (Yogi Vemana University, 2016).

These compounds were tested against Acetylcholinesterase (Electrophorus electricus, UniProt O42275) (assay: AChE Inhibitory Assay). Settings: pH 7.7.
Acetylcholinesterase, sequence (O42275 whole entry): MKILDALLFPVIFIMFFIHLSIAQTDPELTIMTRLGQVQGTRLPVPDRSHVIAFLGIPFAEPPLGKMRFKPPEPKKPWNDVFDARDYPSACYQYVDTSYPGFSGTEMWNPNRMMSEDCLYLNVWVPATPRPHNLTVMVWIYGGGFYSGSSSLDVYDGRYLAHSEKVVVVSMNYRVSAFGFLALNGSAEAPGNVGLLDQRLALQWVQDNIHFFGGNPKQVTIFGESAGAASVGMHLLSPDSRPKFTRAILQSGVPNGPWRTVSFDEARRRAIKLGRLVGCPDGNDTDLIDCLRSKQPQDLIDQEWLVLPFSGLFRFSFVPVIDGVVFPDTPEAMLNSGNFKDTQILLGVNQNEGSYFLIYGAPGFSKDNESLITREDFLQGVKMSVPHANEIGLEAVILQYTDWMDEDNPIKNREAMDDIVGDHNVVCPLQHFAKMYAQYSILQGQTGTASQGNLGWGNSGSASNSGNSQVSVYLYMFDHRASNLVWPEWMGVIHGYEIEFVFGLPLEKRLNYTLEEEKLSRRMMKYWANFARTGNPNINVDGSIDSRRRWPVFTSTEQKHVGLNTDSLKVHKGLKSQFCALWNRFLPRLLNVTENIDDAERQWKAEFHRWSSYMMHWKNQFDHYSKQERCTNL
Method: The mixture was incubated at 25 °C for 5 min. Subsequently, the enzymatic reaction was initiated by addition of 15 µL of 1 mM of acetylthiocholine iodide or butyrylthiocholine iodide (according to the respective enzyme), and the mixture was again incubated for 5 min at 25 °C. The rate of absorbance change was measured at 412 nm for 6 min using a microplate reader (Bio-Rad 680, Germany). Galantamine was applied as positive drug.
Compound `COc1ccccc1OCCNC(=O)c1cc2c(ccc3ccc(=O)oc32)oc1=N` [8-imino-N-(2-(2-methoxyphenoxy)ethyl)-2-oxo-2H,8H-pyrano[2,3-f]chromene-9-carboxamide (4q)] has an IC50 of 440 nM.
Compound `N=c1oc2ccc3ccc(=O)oc3c2cc1C(=O)NCc1ccccc1Br` [N-(2-bromobenzyl)-8-imino-2-oxo-2H,8H-pyrano[2,3-f]chromene-9-carboxamide (4l)] has an IC50 of 27 nM.
With `COc1ccc(C(C)NC(=O)c2cc3c(ccc4ccc(=O)oc43)oc2=N)cc1` (configuration not stated) [8-imino-N-(1-(4-methoxyphenyl)ethyl)-2-oxo-2H,8Hpyrano[2,3-f]chromene-9-carboxamide (4j)] the IC50 was 390 nM.
In the case of `N=c1oc2ccc3ccc(=O)oc3c2cc1C(=O)NCc1ccccc1Cl` [N-(2-chlorobenzyl)-8-imino-2-oxo-2H,8H-pyrano[2,3-f]chromene-9-carboxamide (4n)], the IC50 is reported as 30 nM.
In the case of `N=c1oc2ccc3ccc(=O)oc3c2cc1C(=O)NCc1cccc(Br)c1` [N-(3-bromobenzyl)-8-imino-2-oxo-2H,8H-pyrano[2,3-f]chromene-9-carboxamide (4m)], the IC50 is reported as 13 nM.
In the case of `Cc1cc(=O)oc2c1ccc1oc(=N)c(C(=O)NCc3ccc(C(C)(C)C)cc3)cc12` [N-(4-(tert-butyl)benzyl)-8-imino-4-methyl-2-oxo-2H,8H-pyrano[2,3-f]chromene-9-carboxamide (4p)], the IC50 is reported as 77 nM.
Compound `N=c1oc2ccc3ccc(=O)oc3c2cc1C(=O)NC1CC1` [N-cyclopropyl-8-imino-2-oxo-2H,8H-pyrano[2,3-f]chromene-9-carboxamide (4d)] has an IC50 of 799 nM.
With `N=c1oc2ccc3ccc(=O)oc3c2cc1C(=O)NCc1cccc(Cl)c1` [N-(3-chlorobenzyl)-8-imino-2-oxo-2H,8H-pyrano[2,3-f]chromene-9-carboxamide (4o)] the IC50 was 88 nM.
With `CC(NC(=O)c1cc2c(ccc3ccc(=O)oc32)oc1=N)c1ccccc1` (configuration not stated) [8-imino-2-oxo-N-(1-phenylethyl)-2H,8H-pyrano[2,3-f]chromene-9-carboxamide (4h)] the IC50 was 462 nM.
`CCCCCCCCCCCCNC(=O)c1cc2c(ccc3ccc(=O)oc32)oc1=N` [N-dodecyl-8-imino-2-oxo-2H,8H-pyrano[2,3-f]chromene-9-carboxamide (4c)] was tested, and the IC50 was 83 nM.
With `CCNC(=O)c1cc2c(ccc3ccc(=O)oc32)oc1=N` [N-ethyl-8-imino-2-oxo-2H,8H-pyrano[2,3-f]chromene-9-carboxamide (4b)] the IC50 was 259 nM.
`N=c1oc2ccc3ccc(=O)oc3c2cc1C(=O)NCc1ccccc1` [N-benzyl-8-imino-2-oxo-2H,8H-pyrano[2,3-f]chromene-9-carboxamide (4g)] was tested, and the IC50 was 497 nM.
Work on `N=c1oc2ccc3ccc(=O)oc3c2cc1C(=O)N1CCOCC1` [8-imino-9-(morpholine-4-carbonyl)-2H,8H-pyrano[2,3-f]chromen-2-one (4f)] yielded an IC50 of 226 nM.
For `COc1ccc(CNC(=O)c2cc3c(ccc4ccc(=O)oc43)oc2=N)c(OC)c1` [N-(2,4-dimethoxybenzyl)-8-imino-2-oxo-2H,8H-pyrano[2,3-f]chromene-9-carboxamide (4k)], the IC50 was 300 nM.
Work on `N=c1oc2ccc3ccc(=O)oc3c2cc1C(=O)NC1CCCCC1` [N-cyclohexyl-8-imino-2-oxo-2H,8H-pyrano[2,3-f]chromene-9-carboxamide (4e)] yielded an IC50 of 169 nM.
Work on `CNC(=O)c1cc2c(ccc3ccc(=O)oc32)oc1=N` [8-imino-N-methyl-2-oxo-2H,8H-pyrano[2,3-f]chromene-9-carboxamide (4a)] yielded an IC50 of 415 nM.
In the case of `N=c1oc2ccc3ccc(=O)oc3c2cc1C(=O)NC(c1ccccc1)c1ccccc1` [N-benzhydryl-8-imino-2-oxo-2H,8H-pyrano[2,3-f]chromene-9-carboxamide (4i)], the IC50 is reported as 669 nM.
